Key:
[1] = acute oral toxicity in rats, observed during 14 days; assay type: in vivo, Wistar EOPS rats; conditions: in vivo, rat, 2000 mg/kg
Method: (§1) The acute toxicity of the p-chlorophenyl ester of clofibric acid was determined using two species of animals (Swiss EOPS mice and Wistar EOPS rats) by oral administration, the product being administered in a gum preparation. The animals were observed during 14 days.

[2] = system: serum and liver lipid levels; assay: hypolipidemic activity in rats on regimen rich in lipids, second set of experiments (Table II); assay type: in vivo, male Wistar EOPS rats
Method: (§2) The hypolipidemic activity was determined in rats subjected to a regimen rich in lipids over the course of 2 sets of experiments.
2. Male Wistar EOPS rats weighing in the neighborhood of 140 g receive a regimen rich in lipids during 21 days. Beginning with the eleventh day, the animals receive either a gum preparation containing the product to be tested or a preparation of 6% gum arabic alone, for 6 days out of 7. After the last feeding, and a subsequent 24 hour fast, the animals are sacrificed. A group of animals submitted to a normal regimen is used as a control. The percentage reductions of lipid levels are calculated using the following equation: [formula]

[3] = system: Swiss EOPS mice; assay: acute oral toxicity in mice, observed during 14 days; assay type: in vivo; conditions: general statement
Method: as §1

[4] = as above; assay type: in vivo, Swiss EOPS mice; conditions: mouse, in vivo, po, 2000 mg/kg
Method: as §1

[5] = system: Wistar EOPS rats; assay: acute oral toxicity in rats, observed during 14 days; assay type: in vivo; conditions: rat, 2000 mg/kg
Method: as §1

[6] = subchronic toxicity study, blood levels after one month oral administration (Table III); assay type: in vivo, male Wistar EOPS rats; set-up: bilirubin: unit not given here
Method: A subchronic toxicity study of the p-chlorophenyl ester of clofibric acid was carried out using the following protocol. The product was administered six days a week during the course of a month, by oral administration in a gum preparation, to male Wistar EOPS rats having an average initial weight of 200 g. After the last feeding, the animals were fasted. A blood sample is taken from the abdominal aorta under anesthesia, then the animals are sacrificed. […] The notation NS or S signifies whether the change induced by the product to be tested was statistically nonsignificant or significant.

[7] = system: serum and liver lipid levels; assay: hypolipidemic activity in rats on regimen rich in lipids, first set of experiments (Table I); assay type: in vivo, conventional male Wistar rats
Method: as §2
1. Conventional male Wistar rats weighing 130-150 g were maintained on a regimen rich in lipids for 21 days. At the same time, beginning with the fifteenth day of the regimen, they received a daily dose of either a gum preparation containing the product to be tested or a preparation of 6% gum arabic alone. After a fast of 24 hours, the animals were sacrificed, 22 days after the start of the regimen.

[8] = 125 mg/kg/day, regimen rich in lipids
[9] = second dose group, dose not given
[10] = 200 mg/kg/day, regimen rich in lipids
[11] = 75 mg/kg/day, regimen rich in lipids

**Q.** With CC(C)(Oc1ccc(Cl)cc1)C(=O)O [clofibric acid, p-chlorophenoxyisobutyric acid, reference compound] as the molecule, how does the mortality at 336 h [1] read?
**A.** The mortality at 336 h was 40%.

**Q.** What about the “Wt. of liver / Wt of rat” value [2, 8] of the same molecule?
**A.** Its value is 6.99 ± 0.75.

**Q.** And the liver cholesterol level [2, 8]?
**A.** Its liver cholesterol level is 127.0 mg/g of liver.

**Q.** And the “liver total lipids level” value [2, 8]?
**A.** Its value is 382.7 mg/g of liver.

**Q.** And the “liver triglycerides % reduction” value [2, 8]?
**A.** Its value is 65%.

**Q.** And the liver triglycerides level [2, 8]?
**A.** Its liver triglycerides level is 20.33 mg/g of liver.

**Q.** And the “serum cholesterol % reduction” value [2, 8]?
**A.** Its value is 54%.

**Q.** What about the serum cholesterol concentration [2, 8] of the same molecule?
**A.** The serum cholesterol concentration was 2.31 g/L.

**Q.** And the “serum total lipids % reduction” value [2, 8]?
**A.** The value was 46%.

**Q.** And the “serum total lipids concentration” value [2, 8]?
**A.** The value was 4.97 ± 1.41 g/L.

**Q.** What about the serum triglycerides concentration [2, 8] of the same molecule?
**A.** Its serum triglycerides concentration is 0.23 ± 0.04 g/L.

**Q.** Which results are given for CC(C)(Oc1ccc(Cl)cc1)C(=O)Oc1ccc(Cl)cc1 [p-chlorophenyl ester of clofibric acid, p-chlorophenyl 2-(p-chlorophenoxy)-2-methylpropionate]?
**A.** toxicity [3]: very low toxicity; mortality at 336 h [4]: 10%; mortality [5]: did not result in any mortality; alkaline phosphatase ([6]; 100 mg/kg/day): 25.0 ± 4.9 mU/ml; bilirubin ([6]; 100 mg/kg/day): 3.68 ± 0.73; cholesterol ([6]; 100 mg/kg/day): 0.47 ± 0.04 g/L; glycemia ([6]; 100 mg/kg/day): 1.58 ± 0.15 g/L; total lipids ([6]; 100 mg/kg/day): 2.92 ± 0.54 g/L; triglycerides ([6]; 100 mg/kg/day): 0.83 ± 0.27 g/L; urea ([6]; 100 mg/kg/day): 0.42 ± 0.07 g/L; alkaline phosphatase ([6]; 500 mg/kg/day): 38.4 ± 9.9 mU/ml; bilirubin ([6]; 500 mg/kg/day): 5.04 ± 1.09; cholesterol ([6]; 500 mg/kg/day): 0.32 ± 0.06 g/L; glycemia ([6]; 500 mg/kg/day): 1.41 ± 0.26 g/L; total lipids ([6]; 500 mg/kg/day): 2.77 ± 0.42 g/L; triglycerides ([6]; 500 mg/kg/day): 1.09 ± 0.33 g/L; urea ([6]; 500 mg/kg/day): 0.40 ± 0.05 g/L; alkaline phosphatase [6, 9]: 33.5± 7.8 mU/ml; bilirubin [6, 9]: 4.82 ± 1.85; cholesterol [6, 9]: 0.37 ± 0.07 g/L; glycemia [6, 9]: 1.57 ± 0.15 g/L; total lipids [6, 9]: 2.54 ± 0.35 g/L; triglycerides [6, 9]: 0.74 ± 0.1 g/L; urea [6, 9]: 0.34 ± 0.07 g/L; significance of reductions in blood and liver levels ([7]; 200 mg/kg/day, Table I): significant; liver total lipids % reduction [7, 10]: 56%; liver total lipids level [7, 10]: 60.82 ± 26.98 mg/g of liver; serum cholesterol % reduction [7, 10]: 69%; serum cholesterol concentration [7, 10]: 1.33 ± 0.33 g/L; serum total lipids % reduction [7, 10]: 81%; serum total lipids concentration [7, 10]: 3.87 ± 0.65 g/L; hypolipidemic activity compared with clofibric acid and nicotinic acid ([7]; general statement, total serum lipid and serum cholesterol levels): significantly superior to that of both clofibric acid and nicotinic acid; Wt. of liver / Wt of rat [2, 11]: 6.08 ± 0.31; liver cholesterol level [2, 11]: 123.0 mg/g of liver; liver total lipids level [2, 11]: 323.9 mg/g of liver; liver triglycerides % reduction [2, 11]: 48%; liver triglycerides level [2, 11]: 23.37 mg/g of liver; serum cholesterol % reduction [2, 11]: 32%; serum cholesterol concentration [2, 11]: 3.06 g/L; serum total lipids % reduction [2, 11]: 34%; serum total lipids concentration [2, 11]: 5.56 ± 2.83 g/L; serum triglycerides concentration [2, 11]: 0.39 ± 0.06 g/L; Wt. of liver / Wt of rat [2, 8]: 6.36 ± 0.31; liver cholesterol level [2, 8]: 136.5 mg/g of liver; liver total lipids level [2, 8]: 361.9 mg/g of liver; liver triglycerides % reduction [2, 8]: 62%; liver triglycerides level [2, 8]: 20.84 mg/g of liver; serum cholesterol % reduction [2, 8]: 69%; serum cholesterol concentration [2, 8]: 1.79 g/L; serum total lipids % reduction [2, 8]: 74%; serum total lipids concentration [2, 8]: 3.55 ± 0.77 g/L; serum triglycerides concentration [2, 8]: 0.35 ± 0.06 g/L; Wt. of liver / Wt of rat [2, 10]: 6.70 ± 0.50; liver cholesterol level [2, 10]: 135.2 mg/g of liver; liver total lipids level [2, 10]: 382.0 mg/g of liver; liver triglycerides % reduction [2, 10]: 89%; liver triglycerides level [2, 10]: 16.20 mg/g of liver; serum cholesterol % reduction [2, 10]: 67%; serum cholesterol concentration [2, 10]: 1.84 g/L; serum total lipids % reduction [2, 10]: 69%; serum total lipids concentration [2, 10]: 3.81 ± 0.97 g/L; serum triglycerides concentration [2, 10]: 0.22 ± 0.06 g/L; reduction of serum lipid and cholesterol levels compared with the acid ([2]; at equal dosage levels, vs clofibric acid): reduces serum lipid and cholesterol levels to a greater degree than the acid; increase in liver weight compared with the acid ([2]; at equivalent dosage levels, vs clofibric acid): smaller than when the acid is used, and this difference is statistically significant; weight of the animals' livers ([2]; regimen rich in lipids): increases

From US4179519A, “Method and composition for reducing serum lipid levels using p-chlorophenyl p-chlorophenoxyisobutyrate” (priority 1978, dated 1979)
